In patent US8969565B2, “Imidazo[1,2-b]pyridazine-based compounds, compositions comprising them, and methods of their use” (Lexicon Pharmaceuticals, Inc., priority 2012, dated 2015) one finds IC50 data, which are given here for 33 molecules.

The target of assay [1] is T1, AAK1 (Homo sapiens, UniProt Q2M2I8).
T1 construct: HA; expressed in transfected cells; host or cells: HEK293F
Nature of the assay: HEK281 cell-based assay (phospho-mu2 Western blot in transfected HEK293F cells). Particulars: 3 hours incubation, read-out: CBA IC50. The procedure, abridged: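 After 3 hours at 37° C. with compound (five 3-fold-spaced concentrations, DMEM+0.5% FBS), transiently transfected HEK293F cells expressing full-length human AAK1 and Flag-tagged mu2 were lysed. mu2 phosphorylation was read by anti-phospho-mu2 immunoblot, normalized against total mu2 by anti-Flag blot.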

The target of assay [2] is T1, AAK1. Kind of assay: P81 filter plate assay. It is filed as biochemical. The note with it: full-length human AAK1, Mu2 substrate. The procedure: Compounds were serially diluted into a Labcyte LDV plate (Labcyte, cat#LP-0200) using a Mutiprobe (PerkinElmer) and Biomek FX (Beckman Coulter) so that the highest compound concentration was at 96 μM. Compounds were then pinged (75 nL per well) into a Greiner 384-well reaction plate (Greiner, #781076) using an ECHO 550 Liquid Handler (Labcyte). A total of 12 μl reaction buffer (IMAP buffer containing Tween and DTT, from Molecular Devices) was then added to each well of columns 1 and 13 for the negative controls and 12 μl of 2×AAK1 (0.2 nM full-length human protein, NCBI accession no. NP_055726.2) was added to the remaining wells. Enzyme was then pre-incubated with compound for 10 minutes at RT. Reactions were initiated upon Minitrak (PerkinElmer) addition of 12 μl substrate mix containing 2×Mu2 (0.2 μM, full length human protein), 2× cold ATP (2 μM), and 1.3 μCi of hot ^33P-ATP. Reactions proceeded for one hour at RT. Meanwhile, Millipore 384-well P81 filter plates (Millipore, catalog #MZPHNOW10) were placed on a plate washer (Zoom ZW, from Titertek) and pre-wet with 50 μl 1% phosphoric acid. Kinase reactions were then stopped upon addition of 24 μl of 2% phosphoric acid to each well and the Minitrak was then used to transfer 40 μl from each well into the pre-wet Millipore 384-well P81 filter plates. Reaction mixtures were incubated for 10 minutes at RT in the P81 plates, followed by washing five times with 100 μl/well of 1% phosphoric acid using the Zoom filter washer. The bottom of each filter plate was sealed followed by addition of 20 μl Microscint 40 to each well, sealing the top of the plates with Flashplate cover, and then waiting one hour until reading on the TopCount (PerkinElmer).

As a reminder, the IC50 is the concentration at which inhibition is half-maximal.

Where only a bound is given, the exact number is not on record here.

T1 sequence (Q2M2I8 1-863 isoform Q2M2I8-2): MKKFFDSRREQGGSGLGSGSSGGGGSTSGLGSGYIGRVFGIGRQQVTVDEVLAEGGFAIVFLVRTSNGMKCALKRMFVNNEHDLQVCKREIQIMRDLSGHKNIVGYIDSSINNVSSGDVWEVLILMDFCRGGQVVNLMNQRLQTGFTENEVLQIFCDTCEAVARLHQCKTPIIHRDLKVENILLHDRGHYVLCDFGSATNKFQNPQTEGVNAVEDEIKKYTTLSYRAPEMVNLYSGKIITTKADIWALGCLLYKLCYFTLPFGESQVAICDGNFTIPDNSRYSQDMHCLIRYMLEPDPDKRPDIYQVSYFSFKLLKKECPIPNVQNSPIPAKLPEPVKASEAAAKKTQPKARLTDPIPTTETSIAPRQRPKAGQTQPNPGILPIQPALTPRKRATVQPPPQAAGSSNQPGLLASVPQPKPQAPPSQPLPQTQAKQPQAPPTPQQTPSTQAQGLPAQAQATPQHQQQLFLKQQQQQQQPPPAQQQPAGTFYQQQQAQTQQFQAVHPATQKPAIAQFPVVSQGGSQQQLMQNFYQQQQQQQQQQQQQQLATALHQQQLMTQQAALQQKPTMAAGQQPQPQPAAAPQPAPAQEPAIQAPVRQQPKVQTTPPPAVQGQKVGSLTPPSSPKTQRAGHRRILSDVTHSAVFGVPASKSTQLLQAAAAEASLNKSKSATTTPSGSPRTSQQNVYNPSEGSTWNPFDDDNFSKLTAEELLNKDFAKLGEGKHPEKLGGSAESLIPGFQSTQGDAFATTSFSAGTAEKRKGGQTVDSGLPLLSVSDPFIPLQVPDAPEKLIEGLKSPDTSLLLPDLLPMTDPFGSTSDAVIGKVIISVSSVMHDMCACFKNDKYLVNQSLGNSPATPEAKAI

`COCCOC(=O)N1CCN(c2ccc3ncc(-c4cccnc4OC)n3n2)CC1` [2-methoxyethyl 4-(3-(2-methoxypyridin-3-yl)imidazo[1,2-b]pyridazin-6-yl)piperazine-1-carboxylate]: the IC50 is at most 0.1 µM on AAK1 [1] and at most 0.01 µM on AAK1 [2].

Consider `CC(C)(C)CC(=O)N1CCN(c2ccc3ncc(-c4ccccc4)n3n2)CC1` [3,3-dimethyl-1-(4-(3-phenylimidazo[1,2-b]pyridazin-6-yl)piperazin-1-yl)butan-1-one], for which the IC50 was at most 0.1 µM at AAK1 [1] and at most 0.01 µM at AAK1 [2].

Take `NCc1ccc(-c2cnc3ccc(NCC4CCCN4CC(F)(F)F)nn23)cc1` (stereo not shown) [3-(4-(aminomethyl)phenyl)-N-((1-(2,2,2-trifluoroethyl)pyrrolidin-2-yl)methyl)imidazo[1,2-b]pyridazin-6-amine]: the IC50 was at most 0.1 µM on AAK1 [1] and at most 0.01 µM at AAK1 [2].

With `Oc1cccc(-c2cnc3ccc(NCCOC4CCCC4)nn23)c1` [3-(6-((2-(cyclopentyloxy)ethyl)amino)imidazo[1,2-b]pyridazin-3-yl)phenol], the 50% inhibitory concentration (IC50) on AAK1 [1] is at most 1 µM; on AAK1 [2] it was at most 0.01 µM.

As for `c1cc2c(cc1-c1cnc3ccc(NCCOC4CCCC4)nn13)OCO2` [3-(benzo[d][1,3]dioxol-5-yl)-N-(2-(cyclopentyloxy)ethyl)imidazo[1,2-b]pyridazin-6-amine], the figures for the half-maximal inhibitory concentration (IC50) on AAK1 [1] and on AAK1 [2] were at most 1 µM and at most 0.1 µM, respectively.

For the molecule `CC(C)(C)OC(=O)N1CCN(c2ccc3ncc(I)n3n2)CC1` [4-(3-Iodo-imidazo[1,2-b]pyridazin-6-yl)-piperazine-1-carboxylic acid tert-butyl ester], the IC50 on AAK1 [1] was at most 0.1 µM; against AAK1 [2] it was at most 0.01 µM.

In the case of `N#Cc1ccc(-c2cnc3ccc(NCCOC4CCCC4)nn23)s1` [5-(6-((2-(cyclopentyloxy)ethyl)amino)imidazo[1,2-b]pyridazin-3-yl)thiophene-2-carbonitrile], the IC50 on AAK1 [1] was at most 0.1 µM; against AAK1 [2] it was at most 0.01 µM.

In the case of `COc1ccccc1-c1cnc2ccc(N3CCN(C(=O)N4CCCCC4)CC3)nn12` [(4-(3-(2-methoxyphenyl)imidazo[1,2-b]pyridazin-6-yl)piperazin-1-yl)(piperidin-1-yl)methanone], the IC50 at AAK1 [1] was at most 0.1 µM; on AAK1 [2], at most 0.01 µM.

As to `COc1ccccc1-c1cnc2ccc(N3CCN(C(=O)N4CCCC4)CC3)nn12` [(4-(3-(2-methoxyphenyl)imidazo[1,2-b]pyridazin-6-yl)piperazin-1-yl)(pyrrolidin-1-yl)methanone], the results for the IC50 at AAK1 [1] and at AAK1 [2] were at most 0.1 µM and at most 0.01 µM, respectively.

On to `COc1ncccc1-c1cnc2ccc(N3CCN(C(=O)N4CCCCC4)CC3)nn12` [(4-(3-(2-methoxypyridin-3-yl)imidazo[1,2-b]pyridazin-6-yl)piperazin-1-yl)(piperidin-1-yl)methanone], for which the concentration for half-maximal inhibition (IC50) was at most 0.1 µM at AAK1 [1] and at most 0.01 µM against AAK1 [2].

Regarding `COc1ncccc1-c1cnc2ccc(N3CCN(C(=O)N4CCCC4)CC3)nn12` [(4-(3-(2-methoxypyridin-3-yl)imidazo[1,2-b]pyridazin-6-yl)piperazin-1-yl)(pyrrolidin-1-yl)methanone], the IC50 on AAK1 [1] was at most 0.1 µM; against AAK1 [2], at most 0.01 µM.

For the molecule `COc1cnccc1-c1cnc2ccc(N3CCN(C(=O)N4CCCC4)CC3)nn12` [(4-(3-(3-methoxypyridin-4-yl)imidazo[1,2-b]pyridazin-6-yl)piperazin-1-yl)(pyrrolidin-1-yl)methanone], the IC50 is at most 0.1 µM at AAK1 [1] and at most 0.01 µM against AAK1 [2].

For the molecule `O=C(N1CCCCC1)N1CCN(c2ccc3ncc(-c4ccccc4)n3n2)CC1` [(4-(3-phenylimidazo[1,2-b]pyridazin-6-yl)piperazin-1-yl)(piperidin-1-yl)methanone], the concentration for half-maximal inhibition (IC50) on AAK1 [1] is at most 0.1 µM; at AAK1 [2] it was at most 0.01 µM.

As to `O=C(N1CCCC1)N1CCN(c2ccc3ncc(-c4ccccc4)n3n2)CC1` [(4-(3-phenylimidazo[1,2-b]pyridazin-6-yl)piperazin-1-yl)(pyrrolidin-1-yl)methanone], the results for the IC50 at AAK1 [1] and against AAK1 [2] were at most 1 µM and at most 0.01 µM, respectively.

Turning to `Cc1nc(C)c(-c2cnc3ccc(NC[C@@H]4CCCN4C(=O)CC(C)C)nn23)s1` [(S)-1-(2-(((3-(2,4-dimethylthiazol-5-yl)imidazo[1,2-b]pyridazin-6-yl)amino)methyl)pyrrolidin-1-yl)-3-methylbutan-1-one], the concentration for half-maximal inhibition (IC50) at AAK1 [1] and at AAK1 [2] was at most 0.01 µM each time.

For `CC(C)CC(=O)N1CCC[C@H]1CNc1ccc2ncc(-c3cccc(Cl)c3)n2n1` [(S)-1-(2-(((3-(3-chlorophenyl)imidazo[1,2-b]pyridazin-6-yl)amino)methyl)pyrrolidin-1-yl)-3-methylbutan-1-one], the IC50 at AAK1 [1] and on AAK1 [2] was at most 0.01 µM in each case.

`CC(C)OC(=O)N(C)[C@H]1CCN(c2ccc3ncc(-c4ccncc4)n3n2)C1` [(S)-isopropyl methyl(1-(3-(pyridin-4-yl)imidazo[1,2-b]pyridazin-6-yl)pyrrolidin-3-yl)carbamate] returned an IC50 against AAK1 [2] of at most 0.1 µM.

As for `CCCOC(=O)N1CCC[C@H]1CNc1ccc2ncc(Br)n2n1` [(S)-propyl 2-(((3-bromoimidazo[1,2-b]pyridazin-6-yl)amino)methyl)pyrrolidine-1-carboxylate], the 50% inhibitory concentration (IC50) against AAK1 [2] was at most 0.01 µM.

Regarding `CN(C(=O)OC(C)(C)C)[C@H]1CCN(c2ccc3ncc(-c4cccnc4)n3n2)C1` [(S)-tert-butyl methyl(1-(3-(pyridin-3-yl)imidazo[1,2-b]pyridazin-6-yl)pyrrolidin-3-yl)carbamate], the concentration for half-maximal inhibition (IC50) against AAK1 [2] was at most 0.01 µM.

The molecule `CN(C(=O)C1CCCC1)[C@H]1CCN(c2ccc3ncc(-c4cccnc4O)n3n2)C1` [Cyclopentanecarboxylic acid {(S)-1-[3-(2-hydroxy-pyridin-3-yl)-imidazo[1,2-b]pyridazin-6-yl]-pyrrolidin-3-yl}-methyl-amide] showed a 50% inhibitory concentration (IC50) on AAK1 [2] of at most 0.1 µM.

Molecule `COC(=O)c1cnn(-c2ccc3ncc(Br)n3n2)c1` [Methyl 1-(3-bromoimidazo[1,2-b]pyridazin-6-yl)-1H-pyrazole-4-carboxylate] gave an IC50 on AAK1 [2] of at most 0.1 µM.

Regarding `COc1cccc(-c2cnc3ccc(NCCOC4CCCC4)nn23)c1` [N-(2-(cyclopentyloxy)ethyl)-3-(3-methoxyphenyl)imidazo[1,2-b]pyridazin-6-amine], the IC50 on AAK1 [2] was at most 0.1 µM.

The molecule `Cc1csc(-c2cnc3ccc(NCCOC4CCCC4)nn23)c1` [N-(2-(cyclopentyloxy)ethyl)-3-(4-methylthiophen-2-yl)imidazo[1,2-b]pyridazin-6-amine] came in with a concentration for half-maximal inhibition (IC50) against AAK1 [2] of at most 0.1 µM.

Molecule `Cc1ccc(-c2cnc3ccc(NCCOC4CCCC4)nn23)s1` [N-(2-(cyclopentyloxy)ethyl)-3-(5-methylthiophen-2-yl)imidazo[1,2-b]pyridazin-6-amine] returned an IC50 against AAK1 [2] of at most 0.1 µM.

Take `c1csc(-c2cnc3ccc(NCCOC4CCCC4)nn23)c1` [N-(2-(cyclopentyloxy)ethyl)-3-(thiophen-2-yl)imidazo[1,2-b]pyridazin-6-amine]: the concentration for half-maximal inhibition (IC50) on AAK1 [2] is at most 0.01 µM.

In the case of `c1cc(-c2cnc3ccc(NCCOC4CCCC4)nn23)cs1` [N-(2-(cyclopentyloxy)ethyl)-3-(thiophen-3-yl)imidazo[1,2-b]pyridazin-6-amine], at AAK1 [2], the 50% inhibitory concentration (IC50) was at most 0.1 µM.

On AAK1 [2], `CC(C)NC(=O)N1CCN(c2ccc3ncc(-c4ccccc4)n3n2)CC1` [N-Isopropyl-4-(3-phenylimidazo[1,2-b]pyridazin-6-yl)piperazine-1-carboxamide] registered a concentration for half-maximal inhibition (IC50) of at most 0.01 µM.

On to `COc1cnccc1-c1cnc2ccc(NC3CCCCC3)nn12` [N-cyclohexyl-3-(3-methoxypyridin-4-yl)imidazo[1,2-b]pyridazin-6-amine], for which the half-inhibitory concentration (IC50) at AAK1 [2] is at most 0.01 µM.

On AAK1 [2], `CC(C)OC(=O)N(C)[C@H]1CCN(c2ccc3ncc(Br)n3n2)C1` [[(S)-1-(3-Bromo-imidazo[1,2-b]pyridazin-6-yl)-pyrrolidin-3-yl]-methyl-carbamic acid isopropyl ester] registered an IC50 of at most 0.01 µM.

Consider `CCOC(=O)N1CCN(c2ccc3ncc(C(=O)NC)n3n2)CC1` [ethyl 4-(3-(methylcarbamoyl)imidazo[1,2-b]pyridazin-6-yl)piperazine-1-carboxylate], for which the IC50 against AAK1 [2] is at most 0.1 µM.

In turn, `CC(=O)c1cnc2ccc(N3CCN(C(=O)OC(C)C)CC3)nn12` [isopropyl 4-(3-acetylimidazo[1,2-b]pyridazin-6-yl)piperazine-1-carboxylate] showed an IC50 at AAK1 [2] of at most 0.1 µM.

Take `COC(=O)c1cnn(-c2ccc3ncc(-c4cccnc4OC)n3n2)c1` [methyl 1-(3-(2-methoxypyridin-3-yl)imidazo[1,2-b]pyridazin-6-yl)-1H-pyrazole-4-carboxylate]: on AAK1 [2], the IC50 is at most 0.01 µM.

As for `COc1ncccc1-c1cnc2ccc(N3CC(N(C)C(=O)OC(C)(C)C)C3)nn12` [tert-butyl (1-(3-(2-methoxypyridin-3-yl)imidazo[1,2-b]pyridazin-6-yl)azetidin-3-yl)(methyl)carbamate], on AAK1 [2], the IC50 was at most 1 µM.
